One experiment concerns the target T1, RORγ (Homo sapiens, UniProt P51449).
T1 construct: expressed in transfected cells; host or cells: HEK 293 cells, transiently transfected
T1 sequence (P51449 269-508 limits assumed): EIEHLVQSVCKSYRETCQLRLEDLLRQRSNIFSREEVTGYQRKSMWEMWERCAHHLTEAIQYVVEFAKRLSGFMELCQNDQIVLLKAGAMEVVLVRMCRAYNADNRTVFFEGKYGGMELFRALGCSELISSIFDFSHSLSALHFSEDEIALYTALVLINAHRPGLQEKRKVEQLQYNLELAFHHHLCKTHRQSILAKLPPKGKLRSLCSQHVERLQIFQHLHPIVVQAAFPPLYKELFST
The experiment is described as follows: Reporter Gene Assay (RGA): nuclear receptor transactivation assay, inhibition of RORγ transactivation of a luciferase reporter in transiently transfected HEK 293 cells. The experiment is classed as cell-based.
Details: not given
Background: A reporter such as luciferase makes a cellular process visible.
Turning to `CCS(=O)(=O)N1C[C@@H]2C(CNc3nc4cnc(-c5c(C)ncnc5C5CC5)nc4n([C@@H](C)C4CC4)c3=O)[C@@H]2C1` (some centres unmarked) [Example 163], half-maximal inhibition (IC50) required 160 nM.
As to `CCS(=O)(=O)c1ccc(CNc2nc3cnc(-c4c(C5CC5)ncnc4C4CC4)nc3n(C3CC3)c2=O)cc1` [Example 38], the midpoint of inhibition, the IC50, lay at 1100 nM.
The same measure, in the same setting: the figure for `CCS(=O)(=O)c1ccc(CNc2nc3cnc(-c4c(C)ncnc4C4CC4)nc3n([C@@H](C)C(F)(F)F)c2=O)cc1` [Example 177] is 73 nM.

The experiment is the same for the next values; noted with them: read-out: RGA IC50.
`CCS(=O)(=O)N1CC[C@@H](CNc2nc3cnc(-c4c(C)ncnc4C4CC4)nc3n([C@@H](C)C3CC3)c2=O)C1` [Example 211]: the IC50 – broadly, the midpoint of a concentration-inhibition curve – was 225 nM.
For `CO[C@H]1CCC[C@@H]1n1c(=O)c(NCc2ccc(S(C)(=O)=O)cc2)nc2cnc(-c3c(C)ncnc3C3CC3)nc21` [Example 229], the IC50 is 530 nM.
`CCS(=O)(=O)c1ccc(CNc2nc3cnc(-c4c(C)ncnc4C4CC4)nc3n(CC(C)C)c2=O)nc1` [Example 252]: the IC50 is 325 nM.
For the compound `CCS(=O)(=O)N1CCC(CNc2nc3cnc(-c4c(C)ncnc4C4CC4)nc3n(C(C)C)c2=O)CC1` [Example 130], the IC50 is 285 nM.
Regarding `CCS(=O)(=O)N1CCC(CNc2nc3cnc(-c4c(OC)ncnc4C4CC4)nc3n(C(C)C)c2=O)CC1` [Example 131], the IC50 came out at 205 nM.
As for `CC(=O)N1CCC(CNc2nc3cnc(-c4c(C)ncnc4C4CC4)nc3n([C@@H](C)C3CC3)c2=O)CC1` [Example 166], the IC50 was determined as 1600 nM.
Consider `CC[C@@H](C)n1c(=O)c(NCc2ccc(S(C)(=O)=O)cc2)nc2cnc(-c3c(OC)ncnc3C3CC3)nc21` [Example 190], for which the IC50 was 130 nM.
Turning to `CCC(CC)n1c(=O)c(NCc2ccc(S(=O)(=O)CC)cn2)nc2cnc(-c3c(C4CC4)ncnc3C3CC3)nc21` [Example 16], the IC50 stood at 320 nM.
On to `Cc1ncnc(C2CC2)c1-c1ncc2nc(NCc3ccc(S(N)(=O)=O)cn3)c(=O)n(CC(C)C)c2n1` [Example 254], for which the IC50 stood at 455 nM.
On the same count and under the same terms, the value for `CCc1ncnc(C2CC2)c1-c1ncc2nc(NCc3ccc(S(C)(=N)=O)cc3)c(=O)n([C@@H](C)C3CC3)c2n1` (some centres unmarked) [Example 210] was 150 nM; that for `CCS(=O)(=O)c1ccc(CNc2nc3cnc(-c4c(C)ncnc4C4CC4)nc3n([C@@H](C)C(C)C)c2=O)nc1` [Example 66] was 410 nM; that for `CCC(C)n1c(=O)c(NCc2ccc(S(C)(=O)=O)cc2)nc2cnc(-c3c(OC)ncnc3C3CC3)nc21` (centres unmarked) [Example 26] was 420 nM.
In the case of `CCS(=O)(=O)c1ccc(CNc2nc3cnc(-c4c(C5CC5)ncnc4C4CC4)nc3n([C@@H](C)C3CC3)c2=O)nc1` [Example 73], the IC50 was found to be 290 nM.
On to `CCC(C)n1c(=O)c(NCc2ccc(S(C)(=O)=O)cc2)nc2cnc(-c3c(C)ncnc3C3CC3)nc21` (centres unmarked) [Example 14], for which the IC50 was 310 nM.
For the compound `CS(=O)(=O)c1ccc(CNc2nc3cnc(-c4c(C5CC5)ncnc4C4CC4)nc3n(C3CC3)c2=O)cc1` [Example 46], the IC50 came to 3000 nM.
Still for that read-out and setting: the figure for `COc1ncnc(C2CC2)c1-c1ncc2nc(NCc3ccc(S(C)(=O)=O)cn3)c(=O)n(C3CCC3)c2n1` [Example 241] is 310 nM.
On to `CCS(=O)(=O)c1ccc(CNc2nc3cnc(-c4c(C5CC5)ncnc4C4CC4)nc3n(C3CC3)c2=O)cn1` [Example 51], for which the IC50 turned out to be 7600 nM.
For `CCS(=O)(=O)c1sc(CNc2nc3cnc(-c4c(C)ncnc4C4CC4)nc3n([C@@H](C)C3CC3)c2=O)nc1C` [Example 114], the IC50 was found to be 107 nM.
Still for that read-out and setting: the value for `CC[C@H](C)n1c(=O)c(NCc2ccc(S(=O)(=O)CC)cn2)nc2cnc(-c3c(C)ncnc3C(F)(F)F)nc21` [Example 58] was 420 nM.
The same measure, in the same setting: the value for `CCS(=O)(=O)c1ccc(CNc2nc3cnc(-c4c(C5CC5)ncnc4C4CC4)nc3n([C@@H](C)C(C)C)c2=O)nc1` [Example 7] was 280 nM.
Still for that read-out and setting: the value for `CCS(=O)(=O)c1ccc(CNc2nc3cnc(-c4c(C)nc(N)nc4C4CC4)nc3n([C@@H](C)C3CC3)c2=O)nc1` [Example 217] was 160 nM.
For `Cc1ncnc(C2CC2)c1-c1ncc2nc(NCc3ccc(C(=O)O)cc3)c(=O)n([C@@H](C)C3CC3)c2n1` [Example 200], the 50% inhibitory concentration (IC50) turned out to be 855 nM.
Take `CCc1nc(N)nc(C2CC2)c1-c1ncc2nc(NCc3ccc(S(=O)(=O)C4CC4)cn3)c(=O)n([C@@H](C)C3CC3)c2n1` [Example 251]: the IC50 amounted to 158 nM.
Consider `CCc1ncnc(C2CC2)c1-c1ncc2nc(NCc3ccc(S(=O)(=O)CC)cc3)c(=O)n([C@H]3CCOC3)c2n1` [Example 175], for which the IC50 stood at 380 nM.
Still for that read-out and setting: the figure for `CC[C@@H](C)n1c(=O)c(NCc2ccc(S(=O)(=O)CC)nc2)nc2cnc(-c3c(C4CC4)ncnc3C3CC3)nc21` [Example 224] is 120 nM; for `CCS(=O)(=O)c1ccc(CNc2nc3cnc(-c4cnc(N)nc4C(C)C)nc3n(C(C)C)c2=O)nc1` [Example 140] it is 730 nM.
`Cc1ncnc(C2CC2)c1-c1ncc2nc(NCc3ccc(S(C)(=O)=O)cn3)c(=O)n(CC3CC3)c2n1` [Example 247]: the IC50 came out at 385 nM.
Turning to `CCS(=O)(=O)c1ccc(CNc2nc3cnc(-c4c(C)ncnc4C4CC4)nc3n([C@H](C)C(C)C)c2=O)nc1` [Example 67], the IC50 turned out to be 370 nM.
As for `CCS(=O)(=O)c1ccc(CNc2nc3cnc(-c4c(OC)ncnc4C4CC4)nc3n([C@H]3CCC[C@H]3C#N)c2=O)nc1` [Example 108], the IC50 stood at 300 nM.
Regarding `CCc1ncnc(C2CC2)c1-c1ncc2nc(NCc3ccc(S(=O)(=O)CC)cn3)c(=O)n(C3CCCC3)c2n1` [Example 3], the IC50 was 230 nM.
Same read-out and setting: the figure for `CCS(=O)(=O)c1ccc(CNc2nc3cnc(-c4c(OC)ncnc4C4CC4)nc3n(C3(C)CC3(F)F)c2=O)nc1` (centres unmarked) [Example 36] is 880 nM.
Same read-out and setting: the value for `CCS(=O)(=O)c1cnc(CNc2nc3cnc(-c4c(OC)ncnc4C4CC4)nc3n([C@@H](C)C(F)(F)F)c2=O)nc1` [Example 187] was 255 nM; that for `CCS(=O)(=O)c1ccc(CNc2nc3cnc(-c4c(C5CC5)ncnc4C4CC4)nc3n([C@H]3CCOC3)c2=O)cc1` [Example 174] was 275 nM.
For `CCS(=O)(=O)c1ccc(CNc2nc3cnc(-c4c(OC)ncnc4C4CC4)nc3n([C@H]3C[C@@H]3C(F)(F)F)c2=O)nc1` (stereo in doubt) [Example 110], the IC50 is 1350 nM.
As for `CC[C@@H](C)n1c(=O)c(NCc2ncc(S(=O)(=O)CC)cn2)nc2cnc(-c3c(OC)ncnc3C3CC3)nc21` [Example 184], the IC50 amounted to 295 nM.
As to `Cc1ncnc(C2CC2)c1-c1ncc2nc(NCc3ccc(S(C)(=O)=O)cn3)c(=O)n(C3CCC3)c2n1` [Example 242], the IC50 came to 395 nM.
In the case of `CNS(=O)(=O)c1ccc(CNc2nc3cnc(-c4c(C)ncnc4C4CC4)nc3n([C@@H](C)C3CC3)c2=O)cc1` [Example 135], the IC50 stood at 240 nM.
In the case of `CCCc1ncnc(C)c1-c1ncc2nc(NCc3ccc(S(=O)(=O)CC)cn3)c(=O)n(C(C)C)c2n1` [Example 172], the IC50 amounted to 440 nM.
Regarding `CCS(=O)(=O)c1ccc(CNc2nc3cnc(-c4c(OC)ncnc4C4CC4)nc3n([C@H]3CCC[C@@H]3C#N)c2=O)nc1` [Example 109], the IC50 was found to be 790 nM.
For the compound `COc1ncnc(C2CC2)c1-c1ncc2nc(NCc3ccc(S(N)(=O)=O)cc3)c(=O)n(C(C)C)c2n1` [Example 151], the IC50 amounted to 255 nM.
For the compound `CCS(=O)(=O)N[C@H]1C[C@H](CNc2nc3cnc(-c4c(C)ncnc4C4CC4)nc3n([C@@H](C)C3CC3)c2=O)C1` [Example 202], the IC50 turned out to be 455 nM.
